Laboratory results as given in the NIST ThermoML archive (doi:10.1021/je400252p).
± gives the expanded uncertainty stated by the source.

Experiments:
[1] = refractive index (Na D-line) (dimensionless); details: 313 K; 101.33 kPa; Liquid; Standard Abbe refractometry
[2] = for mass density / viscosity: 101.33 kPa; for mass density / surface tension liquid-gas / viscosity: Liquid; for mass density: Vibrating tube method; for surface tension liquid-gas: Ring tensiometer
[3] = Molar enthalpy of transition or fusion; details: Crystal; DSC

CCCCCC[N+]12CCN(CC1)CC2.O=S(=O)([N-]S(=O)(=O)C(F)(F)F)C(F)(F)F
Details	Molar enthalpy of transition or fusion [kcal/mol]	refractive index
[1]	–	1.4379 ± 0.0008
[3]	2.63 ± 0.478	–

[2]
Details	mass density [kg/m3]	surface tension liquid-gas [mN/m]	viscosity [mPa·s]
313.15 K	1355.15 ± 0.54	35.62 ± 0.52	–
318.15 K	1350.93 ± 0.54	35.33 ± 0.52	190.8 ± 21
323.15 K	1346.72 ± 0.53	35.05 ± 0.52	138.1 ± 12
328.15 K	1342.51 ± 0.52	34.83 ± 0.51	107 ± 6.7
333.15 K	1338.29 ± 0.52	34.51 ± 0.52	87.6 ± 4.1

[2], DTA
Details	Glass transition temperature [°C]	Normal melting temperature [°C]
Crystal	–	36 ± 1.7
Glass	-51 ± 5	–
